Test results as given in patent USRE42890E1, “Furazanobenzimidazoles” (Basilea Pharmaceutica AG, priority 2003, dated 2011).
Like-named read-outs stand apart in the source and are kept apart here.

Assays:
[1] = tested on: adherent cells or suspension cells; assay: Hoechst 33342 nuclear staining (fraction of apoptotic nuclei); format: cell-based; set-up: key: 0 relating to no activity; 1 relating to weak activity comprising less than 70% of the cells; score 2 relating to strong activity comprising more than 70% of the cells
[2] = tested on: HT1080; assay: MTS proliferation assay, HT1080; format: cell-based, human; settings: HT1080, 72 h incubation, read-out: MTS proliferation assay IC 50 HT1080
In short: (§1)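 Proliferation: RPMI-1640/FCS complete medium, 37 °C, 7.5% CO2, cells plated 24 h pre-dose; compounds at 10, 3, 1, 0.3 μM final for 72 h; MTS, 492 nm.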

[3] = tested on: Jily; assay: MTS proliferation assay, Jily; format: cell-based; settings: 72 h incubation, read-out: MTS proliferation assay IC 50 Jily
In short: (§2)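 Viability after 72 h compound exposure at 10, 3, 1 and 0.3 μM final was scored by MTS absorbance (492 nm, 3 h reagent incubation), with cells kept in RPMI-1640 containing 5% or 10% fetal calf serum.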

[4] = tested on: Jurkat; assay: MTS proliferation assay, Jurkat; format: cell-based, human; settings: 72 h incubation, read-out: MTS proliferation assay IC 50 Jurkat
In short: as §1

[5] = tested on: MRC5; assay: MTS proliferation assay, MRC5; format: cell-based; settings: MRC5, 72 h incubation, read-out: MTS proliferation assay IC 50 MRC5
In short: as §2

[6] = tested on: HeLa; assay: MTS proliferation assay, HeLa; format: cell-based, human; settings: 72 h incubation, read-out: MTS proliferation assay IC 50 HeLa
In short: as §1

SMILES	Hoechst 33342 nuclear staining score ([1]; H460, conc 0.01 μm)	Hoechst 33342 nuclear staining score ([1]; H460, conc 0.1 μm)	Hoechst 33342 nuclear staining score ([1]; H460, conc 1 μm)	Hoechst 33342 nuclear staining score ([1]; HeLa, conc 0.01 μm)	Hoechst 33342 nuclear staining score ([1]; HeLa, conc 0.1 μm)	Hoechst 33342 nuclear staining score ([1]; HeLa, conc 1 μm)	Hoechst 33342 nuclear staining score ([1]; Jily, conc 0.01 μm)	Hoechst 33342 nuclear staining score ([1]; Jily, conc 0.1 μm)	Hoechst 33342 nuclear staining score ([1]; Jily, conc 1 μm)	Hoechst 33342 nuclear staining score ([1]; Jurkat, conc 0.01 μm)	Hoechst 33342 nuclear staining score ([1]; Jurkat, conc 0.1 μm)	Hoechst 33342 nuclear staining score ([1]; Jurkat, conc 1 μm)	Hoechst 33342 nuclear staining score ([1]; MRC5, conc 0.01 μm)	Hoechst 33342 nuclear staining score ([1]; MRC5, conc 0.1 μm)	Hoechst 33342 nuclear staining score ([1]; MRC5, conc 1 μm)	Hoechst 33342 nuclear staining score ([1]; PBLs, conc 0.01 μm)	Hoechst 33342 nuclear staining score ([1]; PBLs, conc 0.1 μm)	Hoechst 33342 nuclear staining score ([1]; PBLs, conc 1 μm)	IC50 [3] [nM]	IC50 [2] [nM]	also measured
N#CCCNc1nonc1-c1nc2ccccc2n1CC(=O)c1ccc(Cl)cc1 [Example 6, 4-[1-(4-Chlorophenacyl)-1H-benzimidazol-2-yl]-furazan-3-yl-N-(2-cyanoethyl)-amine]	0	2 (score 2 relating to strong activity comprising more than 70% of the cells)	2 (score 2 relating to strong activity comprising more than 70% of the cells)	0	2 (score 2 relating to strong activity comprising more than 70% of the cells)	2 (score 2 relating to strong activity comprising more than 70% of the cells)	2 (score 2 relating to strong activity comprising more than 70% of the cells)	2 (score 2 relating to strong activity comprising more than 70% of the cells)	2 (score 2 relating to strong activity comprising more than 70% of the cells)	2 (score 2 relating to strong activity comprising more than 70% of the cells)	2 (score 2 relating to strong activity comprising more than 70% of the cells)	2 (score 2 relating to strong activity comprising more than 70% of the cells)	2 (score 2 relating to strong activity comprising more than 70% of the cells)	2 (score 2 relating to strong activity comprising more than 70% of the cells)	2 (score 2 relating to strong activity comprising more than 70% of the cells)	0	0	0	10 to 100		IC50 ([2]; Homo sapiens, HT-1080): 10 to 100 nM; IC50 ([4]; Homo sapiens): < 10 nM; IC50 ([5]; Homo sapiens): 100 to 1000 nM; IC50 ([6]; Homo sapiens): 10 to 100 nM
N#CCCNc1nonc1-c1nc2ccccc2n1CC(=O)c1ccc(N)nc1 [Example 79]	2 (score 2 relating to strong activity comprising more than 70% of the cells)	2 (score 2 relating to strong activity comprising more than 70% of the cells)	2 (score 2 relating to strong activity comprising more than 70% of the cells)	2 (score 2 relating to strong activity comprising more than 70% of the cells)	2 (score 2 relating to strong activity comprising more than 70% of the cells)	2 (score 2 relating to strong activity comprising more than 70% of the cells)	2 (score 2 relating to strong activity comprising more than 70% of the cells)	2 (score 2 relating to strong activity comprising more than 70% of the cells)	2 (score 2 relating to strong activity comprising more than 70% of the cells)	2 (score 2 relating to strong activity comprising more than 70% of the cells)	2 (score 2 relating to strong activity comprising more than 70% of the cells)	2 (score 2 relating to strong activity comprising more than 70% of the cells)	1 (1 relating to weak activity comprising less than 70% of the cells)	2 (score 2 relating to strong activity comprising more than 70% of the cells)	2 (score 2 relating to strong activity comprising more than 70% of the cells)	0	0	0	< 10	< 10	IC50 [4]: < 10 nM; IC50 [5]: < 10 nM; IC50 [6]: < 10 nM
N#CCCNc1nonc1-c1nc2ccccc2n1CC(=O)c1ccc2ccccc2c1 [Example 46]	0	0	2 (score 2 relating to strong activity comprising more than 70% of the cells)	0	0	2 (score 2 relating to strong activity comprising more than 70% of the cells)	0	2 (score 2 relating to strong activity comprising more than 70% of the cells)	2 (score 2 relating to strong activity comprising more than 70% of the cells)	0	2 (score 2 relating to strong activity comprising more than 70% of the cells)	2 (score 2 relating to strong activity comprising more than 70% of the cells)	0	0	2 (score 2 relating to strong activity comprising more than 70% of the cells)	0	0	0	10 to 100	10 to 100	IC50 [4]: < 10 nM; IC50 [5]: 100 to 1000 nM; IC50 [6]: 10 to 100 nM
COc1cc(C(=O)Cn2c(-c3nonc3N)nc3ccccc32)ccc1OCc1ccccc1 [Example 73]	0	0	2 (score 2 relating to strong activity comprising more than 70% of the cells)	0	0	1 (1 relating to weak activity comprising less than 70% of the cells)	0	0	1 (1 relating to weak activity comprising less than 70% of the cells)	0	0	2 (score 2 relating to strong activity comprising more than 70% of the cells)	0	0	1 (1 relating to weak activity comprising less than 70% of the cells)	0	0	0	100 to 1000	100 to 1000	IC50 [4]: 100 to 1000 nM; IC50 [5]: 100 to 1000 nM; IC50 [6]: 100 to 1000 nM
Nc1nonc1-c1nc2ccccc2n1CC(=O)c1ccc(C(F)(F)F)cc1 [Example 43]				0	0	1 (1 relating to weak activity comprising less than 70% of the cells)	0	0	1 (1 relating to weak activity comprising less than 70% of the cells)	0	0	2 (score 2 relating to strong activity comprising more than 70% of the cells)	0	0	1 (1 relating to weak activity comprising less than 70% of the cells)	0	0	0	100 to 1000	100 to 1000	IC50 [4]: 100 to 1000 nM; IC50 [5]: 100 to 1000 nM; IC50 [6]: 100 to 1000 nM
COc1ccc(C(=O)Cn2c(-c3nonc3N)nc3ccccc32)cc1[N+](=O)[O-] [Example 68]	0	0	2 (score 2 relating to strong activity comprising more than 70% of the cells)	0	0	2 (score 2 relating to strong activity comprising more than 70% of the cells)	0	1 (1 relating to weak activity comprising less than 70% of the cells)	1 (1 relating to weak activity comprising less than 70% of the cells)	0	2 (score 2 relating to strong activity comprising more than 70% of the cells)	2 (score 2 relating to strong activity comprising more than 70% of the cells)	0	0	1 (1 relating to weak activity comprising less than 70% of the cells)	0	0	0	10 to 100	100 to 1000	IC50 [4]: 10 to 100 nM; IC50 [5]: 100 to 1000 nM; IC50 [6]: 100 to 1000 nM
